From PMC12916490 (Molecular Psychiatry, 2025)

Experiments:
h5-HT2C [1] = target: T1, h5-HT2C (Homo sapiens, UniProt P28335); assay: biochemical; assay type: binding
T1 sequence (P28335 33-458): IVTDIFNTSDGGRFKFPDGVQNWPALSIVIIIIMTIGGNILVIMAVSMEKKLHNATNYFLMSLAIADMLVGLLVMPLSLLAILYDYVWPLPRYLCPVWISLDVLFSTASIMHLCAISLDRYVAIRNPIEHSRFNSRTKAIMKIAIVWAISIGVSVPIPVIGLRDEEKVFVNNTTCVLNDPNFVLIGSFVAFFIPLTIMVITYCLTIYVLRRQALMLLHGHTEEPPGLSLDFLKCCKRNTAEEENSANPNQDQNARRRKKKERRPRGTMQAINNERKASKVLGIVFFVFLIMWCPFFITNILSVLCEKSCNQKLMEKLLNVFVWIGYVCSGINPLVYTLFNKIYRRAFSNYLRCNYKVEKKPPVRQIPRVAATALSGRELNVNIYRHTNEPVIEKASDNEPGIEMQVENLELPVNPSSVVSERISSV

h5-HT2C [2] = target: T1, h5-HT2C; assay: cell-based; settings: for Emax: read-out: IP1 formation Emax h5-HT2C (95% CI)
C57BL/6 J mice [3] = assay: Head-twitch response (HTR) dose-response in mice, 30-min session; assay type: in vivo, mouse; settings: for HTR (count/30 min): mean ± SEM; for ED50: Mus musculus, sc, 0.5 h, read-out: HTR in mice ED50 (95% CI), ascending phase of dose-response curve; for ED50 / HTR in mice Emax / HTR in mice Maximum rate: s.c., 30 min session
Method: (§1) Behavioral studies were conducted as previously described with minor modifications. Male C57BL/6 J mice (The Jackson Laboratory #000664, 24 mice/drug) were purchased at 8 weeks old, group housed for acclimation (3–5 per cage for 1–2 weeks) under a 12:12 light:dark cycle (07:00 local time = lights on), with ad libitum access to food and water at the NIDA IRP facilities in Baltimore, MD, USA. All experiments were approved by the NIDA IRP Animal Care and Use Committee. After acclimation to the vivarium facilities, each mouse was briefly anesthetized with isoflurane and a temperature transponder (14 × 2 mm, model IPTT-300, Bio Medic Data Systems, Inc., Seaford, DE, USA) was implanted subcutaneously (s.c.) on the back, posterior to the shoulder blades. After the implant, mice were single housed and allowed one week recovery prior to the start of experiments. […] Drugs were randomly assigned and administered s.c. as the weight of the form used at an injection volume of 0.01 mL/g body weight.
(§2) During experimental testing, mice were tested once every 1–2 weeks to avoid potential tolerance to behavioral effects of the test drugs and were tested 2–3 times in total per drug. Each test session began with a brief 5 min acclimation period to the testing arenas, followed by recording baseline body temperature using a handheld wand that was sensitive to the signals emitted from the s.c. transponder. After this, mice were injected s.c. with appropriate doses of test drug and returned to the chambers for a 30-min test session. During the dose-response sessions, locomotor activity was continuously recorded using open field chambers with photobeam arrays (Coulbourn Instruments, Holliston, MA, USA) that were modified with cylindrical inserts and custom floor panels that also allowed video recordings of each mouse to later quantify HTR activity (GoPro Hero 7 camera; 960p resolution at 120 frames per second). Videos for each mouse were analyzed post session using commercially available software used to quantify HTR as previously described.
(§3) Data analysis was performed with Prism software (version 10.1.2, GraphPad Software, Boston, MA, USA). The IC50 values from the radioligand binding assays were determined by nonlinear regression, using three independent concentration-response curves fitted to a one-site model. The Cheng-Prusoff equation was used to calculate Kᵢ values for the competing ligands. EC50 values were determined by applying nonlinear regression to concentration-response curves. Bias factors (β) were calculated based on the relative intrinsic activity approach. More detailed information can be found in the Supplementary information. Mean values for total number of HTR, change in body temperature from pre to post session (Δ°C), and total distance traveled (cm) for each drug dose were compared (p < 0.05) via Welch’s ANOVA with Dunnett’s T3 post test, comparing all doses to respective vehicle controls (0 mg/kg). Welch’s ANOVA with Dunnett’s T3 post test was also used to compare drug concentrations, but the data were compared to DOM in this case. Dose–response relationships for HTR and locomotor activities were plotted using bell-shaped curve fits, while temperature change data were plotted using four-parameter non-linear regression curve fits. The ascending phase of the HTR curve for each drug was used to determine ED50 potency values from four parameter non-linear regression fits. For combined DOM and DOAM administration, the plasma, brain tissue, and brain dialysate drug concentrations were compared using paired t-tests (p < 0.05). Ratios were compared using Holm-Sidak’s post hoc test following a repeated-measures one-way ANOVA (F (1.709, 6.835) = 70.80; p < 0.0001).
(§4) Locomotor activity and body temperature were also assessed to monitor other pharmacological effects of the drugs that may impact the HTR. […]

C57BL/6 J mice [4] = assay: Body temperature change in mice (dose-response sessions); assay type: in vivo, mouse; settings: pre to post 30-min session, mean ± SEM
Method: as §1, §2, §3, §4

C57BL/6 J mice [5] = assay: Locomotor activity in mice (dose-response sessions); assay type: in vivo, mouse; settings: 30-min session, mean ± SEM
Method: as §1, §2, §3, §4

h5-HT2A = h5-HT2A (Homo sapiens, UniProt P28223); assay: biochemical; assay type: binding; parameters: expressed in transfected cells; host or cells: HEK 293 cells (membrane preparation)
C57BL/6 J mice [6] = assay: HTR after single fixed doses prior to brain and blood collection (20 min); assay type: in vivo, mouse; settings: single s.c. dose: DOM 3, DOPR 1, DOBU 3, DOAM 10, 2,5-DMA 10 mg/kg
Method: In these experiments, HTR activity was monitored for 20 min, followed by cardiac puncture and decapitation. Whole blood (~ 300–500 µL per sample) was collected via cardiac puncture, placed in tubes containing 10 µL of heparin (1000 IU/mL), and immediately stored on ice until centrifugation. Blood samples were spun at 3300 rpm at 4 °C and plasma was decanted into vials on dry ice until storage at -80 °C. Whole brains were collected immediately after cardiac puncture. Brains were frozen on dry ice, weighed, then placed into 7-mL homogenizing tubes with ceramic beads, and stored at -80 °C.
as §3, with “For combined DOM and DOAM administration, the plasma, brain tissue, and brain dialysate drug concentrations were compared using paired t-tests (p < 0.05). Ratios were compared using Holm-Sidak’s post hoc test following a repeated-measures one-way ANOVA (F (1.709, 6.835) = 70.80; p < 0.0001).” left out

h5-HT2A, sequence (P28223 whole entry, looked up): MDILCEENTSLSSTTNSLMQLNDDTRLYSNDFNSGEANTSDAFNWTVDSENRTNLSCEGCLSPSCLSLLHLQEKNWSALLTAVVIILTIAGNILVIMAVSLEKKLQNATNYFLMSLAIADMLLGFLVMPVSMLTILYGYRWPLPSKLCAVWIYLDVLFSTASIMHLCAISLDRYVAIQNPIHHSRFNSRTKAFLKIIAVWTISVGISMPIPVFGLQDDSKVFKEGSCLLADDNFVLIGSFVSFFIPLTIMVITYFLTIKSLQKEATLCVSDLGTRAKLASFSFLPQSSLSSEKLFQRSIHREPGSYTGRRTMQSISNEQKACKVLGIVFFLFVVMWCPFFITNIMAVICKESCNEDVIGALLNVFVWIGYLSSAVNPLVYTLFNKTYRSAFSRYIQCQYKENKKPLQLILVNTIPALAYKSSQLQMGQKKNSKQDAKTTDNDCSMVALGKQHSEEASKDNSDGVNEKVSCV

CCCc1cc(OC)c(CC(C)N)cc1OC.Cl (centres unmarked) [DOPR, 4-propyl-2,5-dimethoxyamphetamine hydrochloride]
Ki (h5-HT2C [1]): 47 nM | EC50 (h5-HT2C [2]): 0.93 nM | Emax (h5-HT2C [2]): 99% | HTR (count/30 min) (C57BL/6 J mice [3]; 0.01 mg/kg s.c.): 6.2 ± 0.9 count | HTR (count/30 min) (C57BL/6 J mice [3]; 0.03 mg/kg s.c.): 9.7 ± 2.2 count | HTR (count/30 min) (C57BL/6 J mice [3]; 0.1 mg/kg s.c.): 22.7 ± 2.8 count | HTR (count/30 min) (C57BL/6 J mice [3]; 0.3 mg/kg s.c.): 53.6 ± 2.9 count | HTR (count/30 min) (C57BL/6 J mice [3]; 1 mg/kg s.c.): 98.2 ± 2.3 count | HTR (count/30 min) (C57BL/6 J mice [3]; 3 mg/kg s.c.): 58.0 ± 9.6 count | HTR (count/30 min) (C57BL/6 J mice [3]; 10 mg/kg s.c.): 21.2 ± 3.0 count | ED50 (C57BL/6 J mice [3]): 0.42 mg/kg | HTR in mice Emax (C57BL/6 J mice [3]): 98 total HTR count | HTR in mice Maximum rate (C57BL/6 J mice [3]): 20 HTR count/5 min | ΔTemperature (C57BL/6 J mice [4]; 0.01 mg/kg s.c.): 0.3 ± 0.2 °C | ΔTemperature (C57BL/6 J mice [4]; 0.03 mg/kg s.c.): 0.1 ± 0.1 °C | ΔTemperature (C57BL/6 J mice [4]; 0.1 mg/kg s.c.): 0.1 ± 0.2 °C | ΔTemperature (C57BL/6 J mice [4]; 0.3 mg/kg s.c.): 0.0 ± 0.2 °C | ΔTemperature (C57BL/6 J mice [4]; 1 mg/kg s.c.): -0.1 ± 0.1 °C | ΔTemperature (C57BL/6 J mice [4]; 3 mg/kg s.c.): -3.0 ± 0.6 °C | ΔTemperature (C57BL/6 J mice [4]; 10 mg/kg s.c.): -4.9 ± 0.5 °C | Locomotor activity (distance traveled) (C57BL/6 J mice [5]; 0.01 mg/kg s.c.): 2,728 ± 251 cm | Locomotor activity (distance traveled) (C57BL/6 J mice [5]; 0.03 mg/kg s.c.): 2,493 ± 199 cm | Locomotor activity (distance traveled) (C57BL/6 J mice [5]; 0.1 mg/kg s.c.): 2,791 ± 131 cm | Locomotor activity (distance traveled) (C57BL/6 J mice [5]; 0.3 mg/kg s.c.): 3,680 ± 100 cm | Locomotor activity (distance traveled) (C57BL/6 J mice [5]; 1 mg/kg s.c.): 3,500 ± 278 cm | Locomotor activity (distance traveled) (C57BL/6 J mice [5]; 3 mg/kg s.c.): 1,648 ± 262 cm | Locomotor activity (distance traveled) (C57BL/6 J mice [5]; 10 mg/kg s.c.): 665 ± 82 cm | Ki (h5-HT2A): 11 nM | Selectivity (binding ratios) 5-HT2A/5-HT1A (h5-HT2A): 359 | Selectivity (binding ratios) 5-HT2A/5-HT2B (h5-HT2A): 11 | Selectivity (binding ratios) 5-HT2A/5-HT2C (h5-HT2A): 4

COc1ccc(OC)c(CC(C)N)c1.Cl (centres unmarked) [2,5-DMA, 2,5-Dimethoxyamphetamine hydrochloride]
Ki (h5-HT2C [1]): > 5000 nM | EC50 (h5-HT2C [2]): 124 nM | Emax (h5-HT2C [2]): 103% | HTR (count/30 min) (C57BL/6 J mice [3]; 0.03 mg/kg s.c.): 5.8 ± 1.9 count | HTR (count/30 min) (C57BL/6 J mice [3]; 0.1 mg/kg s.c.): 6.7 ± 0.7 count | HTR (count/30 min) (C57BL/6 J mice [3]; 0.3 mg/kg s.c.): 7.3 ± 1.2 count | HTR (count/30 min) (C57BL/6 J mice [3]; 1 mg/kg s.c.): 11.7 ± 2.1 count | HTR (count/30 min) (C57BL/6 J mice [3]; 3 mg/kg s.c.): 15.3 ± 0.6 count | HTR (count/30 min) (C57BL/6 J mice [3]; 10 mg/kg s.c.): 23.2 ± 1.9 count | HTR (count/30 min) (C57BL/6 J mice [3]; 30 mg/kg s.c.): 16.2 ± 5.0 count | ED50 (C57BL/6 J mice [3]): 1.39 mg/kg | HTR in mice Emax (C57BL/6 J mice [3]): 23 total HTR count | HTR in mice Maximum rate (C57BL/6 J mice [3]): 5 HTR count/5 min | ΔTemperature (C57BL/6 J mice [4]; 0.03 mg/kg s.c.): 0.4 ± 0.1 °C | ΔTemperature (C57BL/6 J mice [4]; 0.1 mg/kg s.c.): 0.3 ± 0.1 °C | ΔTemperature (C57BL/6 J mice [4]; 0.3 mg/kg s.c.): 0.5 ± 0.1 °C | ΔTemperature (C57BL/6 J mice [4]; 1 mg/kg s.c.): 0.2 ± 0.1 °C | ΔTemperature (C57BL/6 J mice [4]; 3 mg/kg s.c.): 0.2 ± 0.2 °C | ΔTemperature (C57BL/6 J mice [4]; 10 mg/kg s.c.): -0.9 ± 0.2 °C | ΔTemperature (C57BL/6 J mice [4]; 30 mg/kg s.c.): -4.0 ± 0.5 °C | Locomotor activity (distance traveled) (C57BL/6 J mice [5]; 0.03 mg/kg s.c.): 2,854 ± 266 cm | Locomotor activity (distance traveled) (C57BL/6 J mice [5]; 0.1 mg/kg s.c.): 2,763 ± 284 cm | Locomotor activity (distance traveled) (C57BL/6 J mice [5]; 0.3 mg/kg s.c.): 2,584 ± 157 cm | Locomotor activity (distance traveled) (C57BL/6 J mice [5]; 1 mg/kg s.c.): 2,630 ± 184 cm | Locomotor activity (distance traveled) (C57BL/6 J mice [5]; 3 mg/kg s.c.): 2,780 ± 415 cm | Locomotor activity (distance traveled) (C57BL/6 J mice [5]; 10 mg/kg s.c.): 1,801 ± 171 cm | Locomotor activity (distance traveled) (C57BL/6 J mice [5]; 30 mg/kg s.c.): 1,169 ± 214 cm | HTR (C57BL/6 J mice [6]): 19 count/20 min
